In paper PMC4372995 (Journal of the American Chemical Society, 2015):
Where two headings read alike, the source gives them in different places.

How the values were obtained:
Assay type in all cases: cell-based
RhlR [1] = target: T1, RhlR (Pseudomonas aeruginosa, UniProt P54292); assay: RhlR reporter antagonism in E. coli, […] vs […] BHL; conditions: read-out: E. coli / RhlR ^b / antagonism (%) ^g
RhlR [2] = target: T1, RhlR; assay: RhlR reporter antagonism in E. coli, […] vs […] BHL; conditions: read-out: E. coli / RhlR ^b / antagonism (%) ^g; remark: listed apart in the source
RhlR [3] = target: T1, RhlR; assay: RhlR reporter agonism in E. coli at […]; conditions: 100 µM

T1 sequence (P54292 whole entry): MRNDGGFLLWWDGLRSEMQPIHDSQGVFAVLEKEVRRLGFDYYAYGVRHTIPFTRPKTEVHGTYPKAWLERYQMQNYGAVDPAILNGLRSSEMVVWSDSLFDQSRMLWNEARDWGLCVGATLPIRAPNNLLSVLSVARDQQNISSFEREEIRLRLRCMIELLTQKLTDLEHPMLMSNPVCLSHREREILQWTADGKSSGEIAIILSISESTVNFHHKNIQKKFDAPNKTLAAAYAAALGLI

O=C(COc1ccc(I)cc1)N[C@H]1CCOC1=O [E22]
inhibition at 100 µM (RhlR [1]): 74%

O=C(Cc1ccc(I)cc1)N[C@H]1CCOC1=O [C10]
inhibition at 100 µM (RhlR [2]): 84%

O=C(CCCOc1cccc(Br)c1)NC1CCSC1=O (stereo not drawn) [compound 5, mBTL]
PAO1 / pyocyanin inhibition (%) (RhlR [3]): 83 % agonism at 100 µM
